According to ChEMBL document CHEMBL1201862, “PubChem BioAssay data set” (2004):
Active and inactive are the calls of the source.

Columns and labels:
[1] = biological target: T1, Sentrin-specific protease 1 (Homo sapiens, UniProt Q9P0U3); test: SENP1 catalytic domain blockers, concentration series – biochemical, kinetic FRET, dose response (AID 651697); format: functional; conditions: read-out: IC50_Mean
Fatty acid synthase [2] = biological target: T2, Fatty acid synthase (Homo sapiens, UniProt P49327); test: inhibition of human FAS-TE enzyme activity – biochemical, endpoint fluorescence intensity, uHTS hits, dose response (AID 624327); format: functional;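 also: fluorescence from hydrolysis of an O-methyl fluorescein acyl ester substrate by the enzyme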
[3] = biological target: T1, Sentrin-specific protease 1; test: Dose response confirmation of small molecule inhibitors of the catalytic domain of the SUMO protease, SENP1 in a FRET assay.; format: functional; conditions: read-out: IC50_Mean
Fatty acid synthase [4] = biological target: T2, Fatty acid synthase; test: inhibition of human FAS-TE enzyme activity – biochemical, kinetic fluorescence intensity, dose response (AID 624326); format: functional;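 also: rate of fluorescence rise from hydrolysis of a fluorogenic O-methyl fluorescein ester substrate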
Mu-type opioid receptor = Mu-type opioid receptor (Homo sapiens, UniProt P35372); format: functional, cell-based;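 also: U2OS cells with beta-arrestin recruitment to OPRM1 by beta-gal complementation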
[5] = biological target: 5-hydroxytryptamine receptor 2A (Mus musculus, UniProt P35363); format: functional, cell-based;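 also: CHO-K1 cells with tagged receptor and beta-arrestin; agonist potency measured as compound-induced activation of the receptor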
[6] = biological target: T3, Corticotropin-releasing factor receptor 2/Corticotropin-releasing factor-binding protein (Homo sapiens, UniProt P24387+Q13324); test: Dose Response confirmation of uHTS hits for small molecule antagonists of the CRF-binding protein and CRF-R2 receptor complex.; format: functional; conditions: read-out: IC50_Mean
T3 sequence (Q13324 whole entry): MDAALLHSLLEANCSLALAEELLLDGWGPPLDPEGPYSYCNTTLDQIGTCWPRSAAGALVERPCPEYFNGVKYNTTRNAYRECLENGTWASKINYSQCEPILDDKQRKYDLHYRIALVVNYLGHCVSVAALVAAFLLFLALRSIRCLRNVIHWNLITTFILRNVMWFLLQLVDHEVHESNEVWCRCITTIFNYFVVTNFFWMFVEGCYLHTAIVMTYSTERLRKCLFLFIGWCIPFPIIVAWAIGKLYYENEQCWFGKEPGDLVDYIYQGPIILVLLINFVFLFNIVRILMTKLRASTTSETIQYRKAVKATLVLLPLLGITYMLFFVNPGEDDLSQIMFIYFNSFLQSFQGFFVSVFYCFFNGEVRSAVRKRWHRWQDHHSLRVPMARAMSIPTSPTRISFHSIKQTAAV
T3 sequence (P24387 whole entry): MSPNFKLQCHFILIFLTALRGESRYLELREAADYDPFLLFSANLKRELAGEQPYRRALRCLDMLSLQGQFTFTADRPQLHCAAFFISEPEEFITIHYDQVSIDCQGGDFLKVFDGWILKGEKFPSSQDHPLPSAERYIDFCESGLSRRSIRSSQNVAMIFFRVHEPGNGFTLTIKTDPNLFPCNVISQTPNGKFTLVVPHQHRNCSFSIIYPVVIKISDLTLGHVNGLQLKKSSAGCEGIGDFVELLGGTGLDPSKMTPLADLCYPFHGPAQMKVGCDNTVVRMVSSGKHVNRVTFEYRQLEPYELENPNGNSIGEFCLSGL

[7] = biological target: T3, Corticotropin-releasing factor receptor 2/Corticotropin-releasing factor-binding protein; test: activators of CRF receptor 2 with binding protein – uHTS hits, confirmation (AID 602473); format: functional; conditions: read-out: EC50_Mean
Beta-galactosidase = Beta-galactosidase (Escherichia coli, UniProt Q8VNN2); test: Dose response counterscreen for EBI2 assay utilizing the enzyme, b-galactosidase.; format: functional
Beta-lactamase [8] = biological target: Beta-lactamase (Pseudomonas aeruginosa, UniProt Q79MP6);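 also: biochemical dose-response test of metallo-beta-lactamase enzyme inhibition, read out by epi-absorbance; purified recombinant IMP-1 metallo-beta-lactamase with nitrocefin as substrate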
Beta-lactamase [9] = biological target: Beta-lactamase (Salmonella choleraesuis (strain SC-B67), UniProt Q5J463)
Vero = test: viability loss in Vero cells – cell-based, plate reader, cherry-pick samples, cytotoxicity control, dose response (AID 687020); format: functional; conditions: Chlorocebus sabaeus

T1 sequence (Q9P0U3 whole entry, the tested form may be a part): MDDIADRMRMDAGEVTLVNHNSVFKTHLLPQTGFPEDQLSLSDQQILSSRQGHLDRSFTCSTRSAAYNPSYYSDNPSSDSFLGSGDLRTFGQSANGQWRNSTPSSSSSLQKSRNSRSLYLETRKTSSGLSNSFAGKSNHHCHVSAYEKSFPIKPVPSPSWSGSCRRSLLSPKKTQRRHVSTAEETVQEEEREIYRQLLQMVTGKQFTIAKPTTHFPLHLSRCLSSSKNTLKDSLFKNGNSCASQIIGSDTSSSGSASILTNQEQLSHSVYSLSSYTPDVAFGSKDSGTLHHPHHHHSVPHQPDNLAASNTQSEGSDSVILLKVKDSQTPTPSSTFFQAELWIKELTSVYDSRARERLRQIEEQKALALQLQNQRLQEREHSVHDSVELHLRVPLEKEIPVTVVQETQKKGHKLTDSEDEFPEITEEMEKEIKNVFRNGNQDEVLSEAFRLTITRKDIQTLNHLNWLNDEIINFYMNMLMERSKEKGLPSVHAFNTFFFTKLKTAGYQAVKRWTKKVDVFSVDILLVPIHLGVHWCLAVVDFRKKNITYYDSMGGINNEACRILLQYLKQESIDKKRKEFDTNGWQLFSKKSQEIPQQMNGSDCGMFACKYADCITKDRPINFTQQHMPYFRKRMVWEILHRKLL
T2 sequence (P49327 whole entry, the tested form may be a part): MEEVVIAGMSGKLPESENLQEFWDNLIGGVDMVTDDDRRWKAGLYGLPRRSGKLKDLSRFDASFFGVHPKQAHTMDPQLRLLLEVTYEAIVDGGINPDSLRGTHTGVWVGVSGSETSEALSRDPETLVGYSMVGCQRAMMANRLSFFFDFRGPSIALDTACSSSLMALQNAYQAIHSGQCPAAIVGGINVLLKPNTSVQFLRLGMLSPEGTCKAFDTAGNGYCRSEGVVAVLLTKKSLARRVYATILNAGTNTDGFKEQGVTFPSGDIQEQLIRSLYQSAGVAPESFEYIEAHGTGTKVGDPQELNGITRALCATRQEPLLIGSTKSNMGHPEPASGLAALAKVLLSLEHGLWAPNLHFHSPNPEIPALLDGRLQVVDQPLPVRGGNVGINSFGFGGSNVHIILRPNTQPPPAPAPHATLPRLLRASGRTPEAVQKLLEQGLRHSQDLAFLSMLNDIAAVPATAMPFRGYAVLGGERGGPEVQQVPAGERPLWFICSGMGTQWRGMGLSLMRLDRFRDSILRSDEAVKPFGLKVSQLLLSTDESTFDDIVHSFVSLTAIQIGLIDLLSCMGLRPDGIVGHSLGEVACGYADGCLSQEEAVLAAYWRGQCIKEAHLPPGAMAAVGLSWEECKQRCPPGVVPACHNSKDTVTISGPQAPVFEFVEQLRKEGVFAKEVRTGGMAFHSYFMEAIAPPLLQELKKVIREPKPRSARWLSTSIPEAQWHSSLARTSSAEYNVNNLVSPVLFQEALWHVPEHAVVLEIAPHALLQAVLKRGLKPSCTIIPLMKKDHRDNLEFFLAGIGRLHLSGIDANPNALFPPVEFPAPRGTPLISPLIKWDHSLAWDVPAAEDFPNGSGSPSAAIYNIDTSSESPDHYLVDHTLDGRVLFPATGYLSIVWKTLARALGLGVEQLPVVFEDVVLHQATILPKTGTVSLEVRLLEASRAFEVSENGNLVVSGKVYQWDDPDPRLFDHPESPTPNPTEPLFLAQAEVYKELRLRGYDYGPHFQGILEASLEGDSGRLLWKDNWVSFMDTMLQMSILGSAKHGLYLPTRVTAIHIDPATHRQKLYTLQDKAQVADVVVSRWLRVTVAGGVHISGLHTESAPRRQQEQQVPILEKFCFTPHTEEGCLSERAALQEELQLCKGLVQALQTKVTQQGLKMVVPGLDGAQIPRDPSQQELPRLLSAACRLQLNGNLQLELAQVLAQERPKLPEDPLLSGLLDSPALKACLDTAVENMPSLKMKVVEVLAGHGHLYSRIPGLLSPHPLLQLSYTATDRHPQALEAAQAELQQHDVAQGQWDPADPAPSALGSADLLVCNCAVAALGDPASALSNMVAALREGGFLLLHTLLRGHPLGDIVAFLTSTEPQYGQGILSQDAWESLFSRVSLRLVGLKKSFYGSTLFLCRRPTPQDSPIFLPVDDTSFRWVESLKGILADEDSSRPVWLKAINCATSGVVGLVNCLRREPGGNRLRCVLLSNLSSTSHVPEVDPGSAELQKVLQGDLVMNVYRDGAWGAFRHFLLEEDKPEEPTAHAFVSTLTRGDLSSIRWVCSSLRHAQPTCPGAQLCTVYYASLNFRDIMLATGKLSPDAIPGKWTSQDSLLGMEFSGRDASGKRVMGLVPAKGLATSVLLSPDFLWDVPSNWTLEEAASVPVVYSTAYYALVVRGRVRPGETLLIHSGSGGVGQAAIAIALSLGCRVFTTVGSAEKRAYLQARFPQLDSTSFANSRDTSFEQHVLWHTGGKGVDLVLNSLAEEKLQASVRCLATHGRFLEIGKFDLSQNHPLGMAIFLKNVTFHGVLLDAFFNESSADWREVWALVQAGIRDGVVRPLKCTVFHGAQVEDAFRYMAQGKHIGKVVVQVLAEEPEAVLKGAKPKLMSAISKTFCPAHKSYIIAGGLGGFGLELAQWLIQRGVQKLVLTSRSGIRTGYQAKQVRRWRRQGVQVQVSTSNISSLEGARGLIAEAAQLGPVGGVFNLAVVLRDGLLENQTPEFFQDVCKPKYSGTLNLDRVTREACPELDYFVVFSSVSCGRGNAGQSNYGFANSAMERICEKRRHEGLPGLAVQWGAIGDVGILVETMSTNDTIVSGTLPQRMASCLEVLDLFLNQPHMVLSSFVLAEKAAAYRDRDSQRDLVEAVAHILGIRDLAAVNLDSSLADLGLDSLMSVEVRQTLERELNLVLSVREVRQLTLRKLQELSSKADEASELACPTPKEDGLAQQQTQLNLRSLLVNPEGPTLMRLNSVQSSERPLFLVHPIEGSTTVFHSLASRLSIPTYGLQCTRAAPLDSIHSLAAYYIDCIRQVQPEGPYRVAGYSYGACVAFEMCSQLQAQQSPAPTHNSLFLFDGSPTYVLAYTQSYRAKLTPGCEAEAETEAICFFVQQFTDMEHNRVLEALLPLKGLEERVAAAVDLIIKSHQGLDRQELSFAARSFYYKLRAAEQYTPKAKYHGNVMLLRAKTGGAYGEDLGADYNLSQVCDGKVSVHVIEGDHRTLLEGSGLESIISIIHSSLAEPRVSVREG
Beta-galactosidase, sequence (Q8VNN2 whole entry): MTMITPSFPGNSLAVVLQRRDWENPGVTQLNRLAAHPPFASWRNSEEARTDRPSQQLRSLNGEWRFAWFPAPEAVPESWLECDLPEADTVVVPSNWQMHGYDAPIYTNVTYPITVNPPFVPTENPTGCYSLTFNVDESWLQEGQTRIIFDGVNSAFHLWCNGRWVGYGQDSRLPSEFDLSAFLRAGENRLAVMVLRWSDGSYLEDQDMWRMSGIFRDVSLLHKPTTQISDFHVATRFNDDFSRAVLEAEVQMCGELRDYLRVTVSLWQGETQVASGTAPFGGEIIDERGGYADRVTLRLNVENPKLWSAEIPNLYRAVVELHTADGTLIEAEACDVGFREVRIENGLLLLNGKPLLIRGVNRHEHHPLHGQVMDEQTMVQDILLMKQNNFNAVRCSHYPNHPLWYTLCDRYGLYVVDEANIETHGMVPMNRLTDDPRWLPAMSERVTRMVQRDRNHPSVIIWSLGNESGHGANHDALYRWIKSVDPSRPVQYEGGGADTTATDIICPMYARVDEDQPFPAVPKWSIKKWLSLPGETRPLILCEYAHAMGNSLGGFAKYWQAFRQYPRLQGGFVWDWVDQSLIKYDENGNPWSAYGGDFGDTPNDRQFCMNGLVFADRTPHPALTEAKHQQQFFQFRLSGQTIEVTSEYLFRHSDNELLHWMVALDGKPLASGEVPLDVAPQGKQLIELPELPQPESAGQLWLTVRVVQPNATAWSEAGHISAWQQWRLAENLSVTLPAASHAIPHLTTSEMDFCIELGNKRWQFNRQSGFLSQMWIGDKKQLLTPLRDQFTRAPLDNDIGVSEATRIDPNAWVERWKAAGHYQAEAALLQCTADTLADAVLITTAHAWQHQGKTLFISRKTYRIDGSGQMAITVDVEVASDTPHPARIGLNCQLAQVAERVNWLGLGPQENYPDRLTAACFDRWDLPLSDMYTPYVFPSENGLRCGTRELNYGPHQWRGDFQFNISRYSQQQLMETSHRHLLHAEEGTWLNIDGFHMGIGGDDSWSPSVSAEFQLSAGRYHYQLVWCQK
Beta-lactamase (Pseudomonas aeruginosa, UniProt Q79MP6), sequence (Q79MP6 whole entry): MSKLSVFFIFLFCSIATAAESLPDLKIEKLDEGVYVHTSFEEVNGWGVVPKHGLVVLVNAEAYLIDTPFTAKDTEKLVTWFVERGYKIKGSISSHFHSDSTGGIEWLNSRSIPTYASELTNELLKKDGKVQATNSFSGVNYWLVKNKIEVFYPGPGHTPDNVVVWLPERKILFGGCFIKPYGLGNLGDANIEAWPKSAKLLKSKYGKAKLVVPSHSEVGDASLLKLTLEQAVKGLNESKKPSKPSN
Mu-type opioid receptor, sequence (P35372 whole entry): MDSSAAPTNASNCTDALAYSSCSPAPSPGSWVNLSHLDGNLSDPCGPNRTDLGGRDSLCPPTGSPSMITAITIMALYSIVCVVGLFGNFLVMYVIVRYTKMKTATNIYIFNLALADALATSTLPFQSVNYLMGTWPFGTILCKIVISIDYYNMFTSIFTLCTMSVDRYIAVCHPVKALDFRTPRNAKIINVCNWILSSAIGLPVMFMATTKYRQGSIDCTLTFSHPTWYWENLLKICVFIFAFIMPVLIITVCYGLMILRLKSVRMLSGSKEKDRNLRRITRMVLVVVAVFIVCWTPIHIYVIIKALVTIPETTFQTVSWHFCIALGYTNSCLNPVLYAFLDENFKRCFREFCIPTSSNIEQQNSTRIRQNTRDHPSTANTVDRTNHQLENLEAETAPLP
Beta-lactamase (Salmonella choleraesuis (strain SC-B67), UniProt Q5J463), sequence (Q5J463 whole entry): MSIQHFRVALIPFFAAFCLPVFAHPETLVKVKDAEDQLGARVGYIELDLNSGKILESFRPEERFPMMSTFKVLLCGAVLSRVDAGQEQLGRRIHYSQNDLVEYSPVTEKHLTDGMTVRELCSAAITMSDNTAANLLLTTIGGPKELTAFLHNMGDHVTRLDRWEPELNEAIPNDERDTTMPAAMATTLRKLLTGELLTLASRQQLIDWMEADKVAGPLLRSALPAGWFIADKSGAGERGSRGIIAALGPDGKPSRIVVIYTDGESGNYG

Question: Which results are given for `Cc1coc(NC(=O)CSc2nc(-c3ccncc3)cc(C(F)(F)F)c2C#N)n1`?
Answer: IC50 [1]: 35.9 µM (inactive); IC50 (Fatty acid synthase [2]): 18.5 µM (active); IC50 [3]: 25.4 µM (inactive); IC50 (Fatty acid synthase [4]): 14.8 µM (active)

Question: For `Cc1ccc2c(C)c(C(=O)Nc3c(C)n(C)n(-c4ccccc4)c3=O)oc2c1C`, which EC50 (Mu-type opioid receptor) is on record?
Answer: 92.5 µM (inactive)

Question: And the EC50 [5]?
Answer: 18.9 µM (inactive)

Question: How did the IC50 [6] turn out when `CSc1ccc(/C=C/C(=O)N2CCN(c3ccccn3)CC2)cc1` was run?
Answer: > 47.1 µM (inactive)

Question: What about the EC50 [7] of the same compound?
Answer: > 53 µM (inactive)

Question: And the IC50 (Beta-galactosidase)?
Answer: > 80 µM (inactive)

Question: What does the source list for `N#CC(C#N)=C1C=C2C=C(N3CCCCC3)CCC2CC1` (configuration not stated)?
Answer: IC50 (Beta-lactamase [8]): 2.51 µM (active); IC50 (Beta-lactamase [9]): 1.23 µM (active)

Question: `CC(C)(CN1CCN(Cc2ccccc2)CC1)NS(=O)(=O)c1ccc(Cl)cc1` was tested. Which AC50 (Vero) did it give?
Answer: 33.7 µM (active)
